We go through ten compounds from patent US10981911B2, “Imidazopyrrolopyridine as inhibitors of the JAK family of kinases” (Janssen Pharmaceutica NV, priority 2016, dated 2021).

What all share (format): biochemical
One assay concerns the target JAK1-JH1JH2 (Homo sapiens (Human), UniProt P23458). Nature of the assay: Enzymatic inhibition assay (RapidFire HTMS), JAK1. Particulars: 12.5 μM ATP, 200 μM substrate; read-out: JAK1-JH2JH1 IC50. Summed up: (§1)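 Quenched with 0.5% TFA plus internal-standard peptide; phosphorylated product quantified by RapidFire C4 SPE–ESI-MS, 11-point 1:3 or 1:4 dilutions in duplicate.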

The target of the next assay is Tyk2-JH1JH2 (Homo sapiens (Human), UniProt P29597, C1142A/C936A). Nature of the assay: Enzymatic inhibition assay (RapidFire HTMS), Tyk2. The note with it: 50 μM ATP, 200 μM substrate. Summed up: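 Compounds were tested in duplicate as 11-point 1:3 or 1:4 DMSO dilutions (≤0.25% DMSO final) in 20 μL reactions at 25 °C for 90 min, with Tyk2 pre-incubated 30 min with 2 mM ATP. Reactions were quenched with TFA plus internal standard peptide, and phosphorylated product was quantified by RapidFire C4 SPE–ESI MS.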
Sequence of Tyk2-JH1JH2 (P29597 580-1182 C936A/C1142A): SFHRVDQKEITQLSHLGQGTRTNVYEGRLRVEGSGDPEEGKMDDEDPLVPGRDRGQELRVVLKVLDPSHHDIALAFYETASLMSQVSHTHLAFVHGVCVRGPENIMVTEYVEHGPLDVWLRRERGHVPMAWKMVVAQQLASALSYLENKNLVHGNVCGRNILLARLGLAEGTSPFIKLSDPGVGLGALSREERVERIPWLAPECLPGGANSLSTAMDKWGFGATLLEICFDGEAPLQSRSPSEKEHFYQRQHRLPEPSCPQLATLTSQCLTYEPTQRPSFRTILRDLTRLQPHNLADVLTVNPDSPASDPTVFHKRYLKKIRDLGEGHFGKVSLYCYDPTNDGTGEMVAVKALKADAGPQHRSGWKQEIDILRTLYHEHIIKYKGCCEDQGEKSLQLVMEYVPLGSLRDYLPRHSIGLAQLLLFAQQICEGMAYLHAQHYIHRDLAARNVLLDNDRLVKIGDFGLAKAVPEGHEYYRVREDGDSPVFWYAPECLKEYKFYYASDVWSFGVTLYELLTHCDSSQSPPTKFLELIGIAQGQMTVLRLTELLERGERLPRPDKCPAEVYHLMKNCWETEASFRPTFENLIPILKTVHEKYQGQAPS

In a further assay the target is JAK2-JH1JH2 (Homo sapiens (Human), UniProt O60674). Nature of the assay: Enzymatic inhibition assay (RapidFire HTMS), JAK2. Particulars: 30 μM ATP, 40 μM substrate. The method in brief:
as §1

For the next assay, the target named is JAK3-JH1JH2 (Homo sapiens (Human), UniProt P52333). The assay can be described thus: Enzymatic inhibition assay (RapidFire HTMS), JAK3. The note with it: 150 μM ATP, 40 μM substrate. The method in brief: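 Compounds tested in duplicate over 11-point 1:3 or 1:4 dilution series; no-enzyme wells as negative control. After 45 min at 25 °C, TFA quench with internal standard, and phosphorylated product quantified by RapidFire–QTrap mass spectrometry relative to the uninhibited reaction.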
Sequence of JAK3-JH1JH2 (P52333 512-1124): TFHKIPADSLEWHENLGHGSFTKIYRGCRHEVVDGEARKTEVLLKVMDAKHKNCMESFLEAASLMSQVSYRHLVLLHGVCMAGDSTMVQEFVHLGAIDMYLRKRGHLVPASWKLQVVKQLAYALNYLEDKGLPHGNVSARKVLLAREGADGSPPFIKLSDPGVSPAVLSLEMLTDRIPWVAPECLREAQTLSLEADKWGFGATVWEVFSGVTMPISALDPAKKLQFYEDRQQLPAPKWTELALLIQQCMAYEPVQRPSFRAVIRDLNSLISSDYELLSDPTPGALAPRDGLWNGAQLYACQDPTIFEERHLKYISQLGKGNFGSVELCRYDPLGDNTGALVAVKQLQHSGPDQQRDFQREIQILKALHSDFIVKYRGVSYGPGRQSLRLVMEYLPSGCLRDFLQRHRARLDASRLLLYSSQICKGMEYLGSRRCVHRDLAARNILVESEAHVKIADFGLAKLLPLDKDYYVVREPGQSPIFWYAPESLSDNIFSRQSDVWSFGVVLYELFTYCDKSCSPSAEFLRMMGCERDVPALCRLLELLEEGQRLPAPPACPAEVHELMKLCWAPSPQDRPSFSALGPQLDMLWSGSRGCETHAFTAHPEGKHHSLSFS

Structures are written as SMILES.

Sequence of JAK1-JH1JH2 (P23458 574-1154): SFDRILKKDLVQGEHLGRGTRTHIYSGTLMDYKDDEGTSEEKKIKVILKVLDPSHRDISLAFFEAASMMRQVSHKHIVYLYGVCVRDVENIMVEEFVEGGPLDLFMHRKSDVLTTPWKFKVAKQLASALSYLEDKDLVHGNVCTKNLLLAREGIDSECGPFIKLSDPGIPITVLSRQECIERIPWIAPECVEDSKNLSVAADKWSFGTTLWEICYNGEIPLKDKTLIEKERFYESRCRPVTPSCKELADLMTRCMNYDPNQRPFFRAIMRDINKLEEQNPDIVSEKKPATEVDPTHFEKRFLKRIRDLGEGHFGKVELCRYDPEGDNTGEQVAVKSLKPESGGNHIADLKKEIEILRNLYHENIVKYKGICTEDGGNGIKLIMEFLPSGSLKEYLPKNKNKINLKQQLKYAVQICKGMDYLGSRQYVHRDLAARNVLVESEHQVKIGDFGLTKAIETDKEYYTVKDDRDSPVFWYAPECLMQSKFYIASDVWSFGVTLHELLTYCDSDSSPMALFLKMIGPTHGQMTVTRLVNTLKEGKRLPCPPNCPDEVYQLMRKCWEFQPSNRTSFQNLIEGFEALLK
Sequence of JAK2-JH1JH2 (O60674 532-1132): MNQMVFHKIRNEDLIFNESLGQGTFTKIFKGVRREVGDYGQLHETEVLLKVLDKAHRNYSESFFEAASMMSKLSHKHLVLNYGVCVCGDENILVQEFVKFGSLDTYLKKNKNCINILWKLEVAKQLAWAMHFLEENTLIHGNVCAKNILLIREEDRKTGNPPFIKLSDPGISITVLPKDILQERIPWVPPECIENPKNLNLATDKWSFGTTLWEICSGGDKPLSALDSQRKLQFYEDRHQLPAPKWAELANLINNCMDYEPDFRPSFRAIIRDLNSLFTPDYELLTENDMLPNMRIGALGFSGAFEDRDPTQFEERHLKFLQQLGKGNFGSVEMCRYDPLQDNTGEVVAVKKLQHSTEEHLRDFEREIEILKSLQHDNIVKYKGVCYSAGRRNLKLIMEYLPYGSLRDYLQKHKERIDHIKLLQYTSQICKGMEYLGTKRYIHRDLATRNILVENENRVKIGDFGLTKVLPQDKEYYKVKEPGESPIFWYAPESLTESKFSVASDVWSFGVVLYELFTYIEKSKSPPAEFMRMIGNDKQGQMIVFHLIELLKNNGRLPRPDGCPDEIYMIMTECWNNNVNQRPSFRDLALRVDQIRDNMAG

For `N#CC[C@H]1CC[C@H](n2c(CC(=O)Nc3ccc(C#N)cc3)nc3cnc4[nH]ccc4c32)CC1` [Ex. 200, 2-(1-((1r,4r)-4-(Cyanomethyl)cyclohexyl)-1,6-dihydroimidazo[4,5-d]pyrrolo[2,3-b]pyridin-2-yl)-N-(4-cyanophenyl)acetamide], the 50% inhibitory concentration (IC50) at JAK1-JH1JH2 was < 4 nM; against Tyk2-JH1JH2, 12.5 nM; on JAK2-JH1JH2, < 3.5 nM; at JAK3-JH1JH2, 13.7 nM.
On the same counts, the results for `N#CC[C@H]1CC[C@H](n2c(CC(N)=O)nc3cnc4[nH]ccc4c32)CC1` [Ex. 201, 2-(1-((1r,4r)-4-(Cyanomethyl)cyclohexyl)-1,6-dihydroimidazo[4,5-d]pyrrolo[2,3-b]pyridin-2-yl)acetamide] are < 4 nM, 1.1 nM, 1.9 nM and 47.5 nM.
On the same counts, the results for `CC(C)(C)OCc1nc2cnc3[nH]ccc3c2n1[C@H]1CC[C@H](CC#N)CC1` [Ex. 202, 2-((1r,4r)-4-(2-(tert-Butoxymethyl)imidazo[4,5-d]pyrrolo[2,3-b]pyridin-1(6H)-yl)cyclohexyl)acetonitrile] are 5 nM, 50.9 nM, 50.9 nM and 1040 nM.
For `N#CC[C@H]1CC[C@H](n2c(Cn3c(-c4ccccc4)noc3=O)nc3cnc4[nH]ccc4c32)CC1` [Ex. 203, 2-((1r,4r)-4-(2-((5-Oxo-3-phenyl-1,2,4-oxadiazol-4(5H)-yl)methyl)imidazo[4,5-d]pyrrolo[2,3-b]pyridin-1(6H)-yl)cyclohexyl)acetonitrile], in that order: 8.5 nM, 41.5 nM, 152 nM and 4680 nM.
As for `N#CC[C@H]1CC[C@H](n2c(CN/C(=N/O)C3CCCCC3)nc3cnc4[nH]ccc4c32)CC1` [Ex. 204, N-((1-((1r,4r)-4-(Cyanomethyl)cyclohexyl)-1,6-dihydroimidazo[4,5-d]pyrrolo[2,3-b]pyridin-2-yl)methyl)-N′-hydroxycyclohexanecarboximidamide], the IC50 amounted to 6.7 nM on JAK1-JH1JH2, 10.7 nM at Tyk2-JH1JH2, 13.1 nM against JAK2-JH1JH2 and 427 nM on JAK3-JH1JH2.
For the compound `N#CCC12CCC(n3c(CC(=O)N4CCCCC4)nc4cnc5[nH]ccc5c43)(CC1)CC2` [Ex. 205, 2-(4-(2-(2-Oxo-2-(piperidin-1-yl)ethyl)imidazo[4,5-d]pyrrolo[2,3-b]pyridin-1(6H)-yl)bicyclo[2.2.2]octan-1-yl)acetonitrile], the concentration for half-maximal inhibition (IC50) was 5.3 nM on JAK1-JH1JH2, 606 nM against Tyk2-JH1JH2, 487 nM against JAK2-JH1JH2 and 439 nM against JAK3-JH1JH2.
With `N#CCC12CCC(n3c(CC(N)=O)nc4cnc5[nH]ccc5c43)(CC1)CC2` [Ex. 206, 2-(1-(4-(Cyanomethyl)bicyclo[2.2.2]octan-1-yl)-1,6-dihydroimidazo[4,5-d]pyrrolo[2,3-b]pyridin-2-yl)acetamide], the IC50 at JAK1-JH1JH2 is 5.6 nM; at Tyk2-JH1JH2, 158 nM; against JAK2-JH1JH2, 210 nM; on JAK3-JH1JH2 it was 881 nM.
On the same counts, the results for `N#CCC12CCC(n3c(CC(=O)Nc4ccccc4)nc4cnc5[nH]ccc5c43)(CC1)CC2` [Ex. 207, 2-(1-(4-(Cyanomethyl)bicyclo[2.2.2]octan-1-yl)-1,6-dihydroimidazo[4,5-d]pyrrolo[2,3-b]pyridin-2-yl)-N-phenylacetamide] are 6.8 nM, 524 nM, 198 nM and 375 nM.
Turning to `N#CCC12CCC(n3c(CC(=O)NCC4CCCCC4)nc4cnc5[nH]ccc5c43)(CC1)CC2` [Ex. 208, 2-(1-(4-(Cyanomethyl)bicyclo[2.2.2]octan-1-yl)-1,6-dihydroimidazo[4,5-d]pyrrolo[2,3-b]pyridin-2-yl)-N-(cyclohexylmethyl)acetamide], the 50% inhibitory concentration (IC50) at JAK1-JH1JH2 turned out to be 7.6 nM; on Tyk2-JH1JH2 it was 714 nM; at JAK2-JH1JH2 it was 442 nM; on JAK3-JH1JH2 it was 536 nM.
As to `CNC(=O)Cc1nc2cnc3[nH]ccc3c2n1C12CCC(CC#N)(CC1)CC2` [Ex. 209, 2-(1-(4-(Cyanomethyl)bicyclo[2.2.2]octan-1-yl)-1,6-dihydroimidazo[4,5-d]pyrrolo[2,3-b]pyridin-2-yl)-N-methylacetamide], the IC50 turned out to be 18.9 nM at JAK1-JH1JH2, 651 nM against Tyk2-JH1JH2, 520 nM against JAK2-JH1JH2 and 604 nM against JAK3-JH1JH2.

One may read the IC50 as the point on the concentration scale where inhibition reaches its midpoint.
